Test results from patent US12128040B2, “Selective estrogen receptor degraders” (Eli Lilly and Company, priority 2018, dated 2024).

Assays:
[1] = Rat oral bioavailability assay; format: in vivo; conditions: plasma, Sprague-Dawley rats, IV 1 mg/kg, PO 10 mg/kg, read-out: oral bioavailability (% F)
Method: Administer the test compound to Sprague-Dawley rats IV at 1 mg/kg (using vehicles of either: 20% CAPTISOL© in 25 mM sodium phosphate buffer, pH2 quantum satis; or 25% DMA, 15% EtOH, 10% propylene glycol, 25% 2-pyrrolidone, and 25% purified water) and PO at 10 mg/kg (using a vehicle of 1% hydroxyethyl cellulose, 0.25% polysorbate 80, 0.05% Antifoam 1510-US, and purified water quantum satis). Collect serial blood samples at 0.08, 0.25, 0.5, 1, 2, 4, 8, and 12 hours post dose for IV bolus and at 0.25, 0.5, 1, 2, 4, 8, and 12 hours post dose after oral administration. After treatment with an EDTA […], obtain plasma by centrifugation and stored at −70° C. until analysis by LC-MS/MS. Determine the test compound concentration in plasma and upload into the Watson LIMS™ system where noncompartmental analysis is used to calculate Area Under the Curve (AUC) for both IV and PO arms. Calculate oral bioavailability (% F) via the following equation, % F=(AUCPO×DoseIV)/(AUCIV×DosePO)×100.

[2] = system: PGR (Progesterone Receptor alpha) gene expression; assay: In vivo target inhibition (IVTI) assay (PGR RT-qPCR) in MCF7 tumors; set-up: species or system mice; conditions: MCF7 tumor xenograft, 30 mg/kg orally, 24 hours
Method: The purpose of this IVTI assay is to measure the ability of a test compound (SERD) to inhibit PGR (Progesterone Receptor alpha) gene expression (transcription) downstream of ERα in xenograft tumors implanted in mice.
Implant female NOD SCID mice (22-25 g) from Envigo RMS, Inc., Madison, Wisconsin with 5×10e^6 MCF7 ER+ve breast cancer cells (ATCC, #HTB-22) subcutaneously in the right flank region in 1:1 HBSS+[…]™ solution (200 μL). Implant a […] pellet (0.18 mg/pellet, 90 day release, from Innovative research) subcutaneously 1 day prior to tumor cell implantation. […] Sacrifice animals using isoflurane anesthesia plus cervical dislocation. Flash freeze tumors and store at −80° C. until processing for RNA isolation and RT-qPCR assay. Collect blood in EDTA tubes, spin down for plasma, and freeze at −80° C. in a 96-well plate. Determine test compound exposures using mass spectrometry.
Pulverize tumors in liquid nitrogen and lyse in 1×RNA lysis buffer (from RNA isolation kits) using Matrix D beads (MP Biomedical, #6913-500) in a FASTPREP-24™ Cell Disrupter machine (MP Biomedical). […] Measure isolated RNA concentration by diluting samples in RNase free water and measuring the absorbance at 260 nm on a plate reader (SpectraMax190). Subtract the average 260 nm absorbance measurement of the blank (RNase free water only) from the 260 nm measurements of all other RNA samples. […]

bioavailability [1]: 27%
Compound: O=C(c1ccc(OCCN2CC(CF)C2)cc1)c1c(-c2ccc(C(F)(F)F)cc2F)cnc2cc(O)ccc12 [Example 1, (4-{2-[3-(Fluoromethyl)azetidin-1-yl]ethoxy}phenyl){3-[2-fluoro-4-(trifluoromethyl)phenyl]-7-hydroxyquinolin-4-yl}methanone]
inhibition of PRα (PGR) expression [2]: 57%
